# Results as given in publication PMC6345968, “Structural basis for species-selective targeting of Hsp90 in a pathogenic fungus” (Nature Communications, 2019).
# Read-outs that look alike come from different tables or passages of the source.
# What was measured:
# [1] = molecular target: human Grp94 NBD (Homo sapiens, UniProt P14625); conditions: 0.1 nM Cy3-GdA; for FP signal (raw) / FP signal as fraction of no-compound (0 uM) control: Experiments 1-3
# [2] = molecular target: T1, Hsp90 in C. albicans (SC5314) lysate (Candida albicans, UniProt P46598); test: biochemical; format: binding; conditions: SC5314 lysate
# T1 construct: endogenous in cells; host or cells: C. albicans SC5314 whole-cell lysate
# T1 sequence (P46598 whole entry): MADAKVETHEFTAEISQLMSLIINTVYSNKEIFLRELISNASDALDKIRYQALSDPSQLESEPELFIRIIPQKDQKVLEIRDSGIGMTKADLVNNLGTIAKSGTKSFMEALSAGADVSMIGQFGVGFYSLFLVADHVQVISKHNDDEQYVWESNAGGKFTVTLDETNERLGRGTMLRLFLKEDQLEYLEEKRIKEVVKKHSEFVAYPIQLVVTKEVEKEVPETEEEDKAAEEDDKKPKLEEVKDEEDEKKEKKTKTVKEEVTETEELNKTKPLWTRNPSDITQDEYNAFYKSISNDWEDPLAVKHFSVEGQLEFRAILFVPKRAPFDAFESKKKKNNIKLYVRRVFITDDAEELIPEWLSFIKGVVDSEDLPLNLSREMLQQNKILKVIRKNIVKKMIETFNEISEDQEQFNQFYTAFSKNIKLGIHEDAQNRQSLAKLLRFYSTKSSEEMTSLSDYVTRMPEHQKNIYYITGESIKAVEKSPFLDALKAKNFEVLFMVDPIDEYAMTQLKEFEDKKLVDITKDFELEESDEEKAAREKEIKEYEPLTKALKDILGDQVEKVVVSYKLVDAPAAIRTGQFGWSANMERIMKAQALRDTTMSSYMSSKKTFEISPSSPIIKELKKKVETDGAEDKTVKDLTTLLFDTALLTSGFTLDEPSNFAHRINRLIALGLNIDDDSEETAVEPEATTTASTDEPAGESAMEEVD
# [3] = test system: Hsp90 in HEPG2 lysate; conditions: HepG2 lysate
# [4] = molecular target: human Hsp90 NBD (Homo sapiens, UniProt P08238); conditions: 0.1 nM Cy3-GdA, Human NBD-Hsp90 (10 nM); for FP signal (raw) / FP signal as fraction of no-compound (0 uM) control: Experiments 1-3
# Sequence of human Hsp90 NBD (P08238 1-223): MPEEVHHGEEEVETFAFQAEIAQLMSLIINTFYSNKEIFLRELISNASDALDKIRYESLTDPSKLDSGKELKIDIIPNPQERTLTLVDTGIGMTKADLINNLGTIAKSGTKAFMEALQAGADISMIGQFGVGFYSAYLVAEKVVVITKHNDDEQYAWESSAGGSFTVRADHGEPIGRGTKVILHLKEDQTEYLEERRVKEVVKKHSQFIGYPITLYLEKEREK
# [5] = molecular target: T2, C. albicans Hsp90 NBD (Candida albicans, UniProt P46598); test: biochemical; format: binding; conditions: 0.1 nM Cy3-GdA, C. albicans NBD-Hsp90 (10 nM); for FP signal (raw) / FP signal as fraction of no-compound (0 uM) control: Experiments 1-3
# T2 construct: C. albicans Hsp90 (E7-K218); made in house; host or cells: E. coli Rosetta2
# T2 sequence (P46598 7-218): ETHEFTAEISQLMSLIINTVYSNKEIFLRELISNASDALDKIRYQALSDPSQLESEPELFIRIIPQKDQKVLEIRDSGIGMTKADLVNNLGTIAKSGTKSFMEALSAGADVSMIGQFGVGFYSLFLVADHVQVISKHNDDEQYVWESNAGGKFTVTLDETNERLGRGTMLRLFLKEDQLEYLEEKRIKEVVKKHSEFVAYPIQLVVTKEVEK
# [6] = test system: Hsp90 in 3T3 lysate; test: FP competition in whole-cell lysate; format: binding, mouse; conditions: 3T3 lysate
# Protocol: After vortexing, cell lysate was frozen at −80 °C for 2 h, followed by thawing on ice. The vortex-freeze-thaw step was repeated. […] Aliquots were thawed immediately prior to use.
# [7] = Experiments 1-3, one value per experiment
# Sequence of human Grp94 NBD (P14625 63-337): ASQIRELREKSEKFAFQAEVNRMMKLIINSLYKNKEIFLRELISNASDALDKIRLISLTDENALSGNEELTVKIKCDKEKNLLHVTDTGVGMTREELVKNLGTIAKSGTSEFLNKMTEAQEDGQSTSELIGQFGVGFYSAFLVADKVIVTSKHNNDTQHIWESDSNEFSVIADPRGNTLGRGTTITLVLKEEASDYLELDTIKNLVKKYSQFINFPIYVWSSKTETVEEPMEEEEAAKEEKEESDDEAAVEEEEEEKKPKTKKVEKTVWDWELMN
structure (smiles),measurement,setting,value
COc1ccc(CON=C2C=CC=CC3OC3CC(C)OC(=O)c3c(O)cc(O)cc3C2)cc1 (mixture of isomers) [CMLD075],EC50,[1]; [7],261 nM
same,FP signal (raw),[1]; Cmpd 0.002 uM,93
same,FP signal as fraction of no-compound (0 uM) control,[1]; Cmpd 0.002 uM,0.9208
same,FP signal (raw),[1]; Cmpd 0.004 uM,89
same,FP signal as fraction of no-compound (0 uM) control,[1]; Cmpd 0.004 uM,0.8812
same,FP signal (raw),[1]; Cmpd 0.008 uM,88
same,FP signal as fraction of no-compound (0 uM) control,[1]; Cmpd 0.008 uM,0.8713
same,FP signal (raw),[1]; Cmpd 0.016 uM,85
same,FP signal as fraction of no-compound (0 uM) control,[1]; Cmpd 0.016 uM,0.8416
same,FP signal (raw),[1]; Cmpd 0.063 uM,73
same,FP signal as fraction of no-compound (0 uM) control,[1]; Cmpd 0.063 uM,0.7228
same,FP signal (raw),[1]; Cmpd 0.25 uM,51
same,FP signal as fraction of no-compound (0 uM) control,[1]; Cmpd 0.25 uM,0.505
same,FP signal (raw),[1]; Cmpd 0.5 uM,33
same,FP signal as fraction of no-compound (0 uM) control,[1]; Cmpd 0.5 uM,0.3267
same,FP signal (raw),[1]; Cmpd 1 uM,15
same,FP signal as fraction of no-compound (0 uM) control,[1]; Cmpd 1 uM,0.1485
same,FP signal (raw),[1]; Cmpd 2 uM,11
same,FP signal as fraction of no-compound (0 uM) control,[1]; Cmpd 2 uM,0.1089
same,FP signal (raw),[2]; 0.002 uM,169
same,"FP signal, fraction of control",[2]; 0.002 uM,0.8989
same,FP signal (raw),[2]; 0.004 uM,160
same,"FP signal, fraction of control",[2]; 0.004 uM,0.8511
same,FP signal (raw),[2]; 0.008 uM,155
same,"FP signal, fraction of control",[2]; 0.008 uM,0.8245
same,FP signal (raw),[2]; 0.01 uM,60
same,"FP signal, fraction of control",[2]; 0.01 uM,0.3226
same,FP signal (raw),[2]; 0.016 uM,142
same,"FP signal, fraction of control",[2]; 0.016 uM,0.7553
same,FP signal (raw),[2]; 0.02 uM,50
same,"FP signal, fraction of control",[2]; 0.02 uM,0.2688
same,FP signal (raw),[2]; 0.063 uM,103
same,"FP signal, fraction of control",[2]; 0.063 uM,0.5479
same,FP signal (raw),[2]; 0.078 uM,24
same,"FP signal, fraction of control",[2]; 0.078 uM,0.129
same,FP signal (raw),[2]; 0.25 uM,60
same,"FP signal, fraction of control",[2]; 0.25 uM,0.3191
same,FP signal (raw),[2]; 0.313 uM,14
same,"FP signal, fraction of control",[2]; 0.313 uM,0.07527
same,FP signal (raw),[2]; 0.5 uM,38
same,"FP signal, fraction of control",[2]; 0.5 uM,0.2021
same,FP signal (raw),[2]; 0.625 uM,7
same,"FP signal, fraction of control",[2]; 0.625 uM,0.03763
same,FP signal (raw),[2]; 1 uM,6
same,"FP signal, fraction of control",[2]; 1 uM,0.03191
same,FP signal (raw),[2]; 2 uM,0
same,"FP signal, fraction of control",[2]; 2 uM,0
same,FP signal (raw),[2]; 2.5 uM,3
same,"FP signal, fraction of control",[2]; 2.5 uM,0.01613
same,FP signal (raw),[2]; 5 uM,0
same,"FP signal, fraction of control",[2]; 5 uM,0
same,FP signal (raw),[2]; 10 uM,-4
same,"FP signal, fraction of control",[2]; 10 uM,-0.02151
same,EC50,"[2]; fit against log conc uM, read-out: EC50",0.102 µM
same,FP signal (raw),[3]; 0.01 uM,200
same,"FP signal, fraction of control",[3]; 0.01 uM,0.9132
same,FP signal (raw),[3]; 0.02 uM,199
same,"FP signal, fraction of control",[3]; 0.02 uM,0.9087
same,FP signal (raw),[3]; 0.078 uM,186
same,"FP signal, fraction of control",[3]; 0.078 uM,0.8493
same,FP signal (raw),[3]; 0.313 uM,164
same,"FP signal, fraction of control",[3]; 0.313 uM,0.7489
same,FP signal (raw),[3]; 0.625 uM,146
same,"FP signal, fraction of control",[3]; 0.625 uM,0.6667
same,FP signal (raw),[3]; 2.5 uM,88
same,"FP signal, fraction of control",[3]; 2.5 uM,0.4018
same,FP signal (raw),[3]; 5 uM,53
same,"FP signal, fraction of control",[3]; 5 uM,0.242
same,FP signal (raw),[3]; 10 uM,32
same,"FP signal, fraction of control",[3]; 10 uM,0.1461
same,EC50,[3]; fit against log conc uM,1.8 µM
same,EC50,[4]; [7],1250 nM
same,FP signal (raw),[4]; Cmpd 0.002 uM,100
same,FP signal as fraction of no-compound (0 uM) control,[4]; Cmpd 0.002 uM,0.9615
same,FP signal (raw),[4]; Cmpd 0.004 uM,101
same,FP signal as fraction of no-compound (0 uM) control,[4]; Cmpd 0.004 uM,0.9712
same,FP signal (raw),[4]; Cmpd 0.008 uM,101
same,FP signal as fraction of no-compound (0 uM) control,[4]; Cmpd 0.008 uM,0.9712
same,FP signal (raw),[4]; Cmpd 0.016 uM,99
same,FP signal as fraction of no-compound (0 uM) control,[4]; Cmpd 0.016 uM,0.9519
same,FP signal (raw),[4]; Cmpd 0.063 uM,96
same,FP signal as fraction of no-compound (0 uM) control,[4]; Cmpd 0.063 uM,0.9231
same,FP signal (raw),[4]; Cmpd 0.25 uM,85
same,FP signal as fraction of no-compound (0 uM) control,[4]; Cmpd 0.25 uM,0.8173
same,FP signal (raw),[4]; Cmpd 0.5 uM,85
same,FP signal as fraction of no-compound (0 uM) control,[4]; Cmpd 0.5 uM,0.8173
same,FP signal (raw),[4]; Cmpd 1 uM,59
same,FP signal as fraction of no-compound (0 uM) control,[4]; Cmpd 1 uM,0.5673
same,FP signal (raw),[4]; Cmpd 2 uM,28
same,FP signal as fraction of no-compound (0 uM) control,[4]; Cmpd 2 uM,0.2692
same,EC50,[5]; [7],47.8 nM
same,FP signal (raw),[5]; Cmpd 0.002 uM,81
same,FP signal as fraction of no-compound (0 uM) control,[5]; Cmpd 0.002 uM,0.8526
same,FP signal (raw),[5]; Cmpd 0.004 uM,80
same,FP signal as fraction of no-compound (0 uM) control,[5]; Cmpd 0.004 uM,0.8421
same,FP signal (raw),[5]; Cmpd 0.008 uM,78
same,FP signal as fraction of no-compound (0 uM) control,[5]; Cmpd 0.008 uM,0.8211
same,FP signal (raw),[5]; Cmpd 0.016 uM,72
same,FP signal as fraction of no-compound (0 uM) control,[5]; Cmpd 0.016 uM,0.7579
same,FP signal (raw),[5]; Cmpd 0.063 uM,36
same,FP signal as fraction of no-compound (0 uM) control,[5]; Cmpd 0.063 uM,0.3789
same,FP signal (raw),[5]; Cmpd 0.25 uM,16
same,FP signal as fraction of no-compound (0 uM) control,[5]; Cmpd 0.25 uM,0.1684
same,FP signal (raw),[5]; Cmpd 0.5 uM,10
same,FP signal as fraction of no-compound (0 uM) control,[5]; Cmpd 0.5 uM,0.1053
same,FP signal (raw),[5]; Cmpd 1 uM,7
same,FP signal as fraction of no-compound (0 uM) control,[5]; Cmpd 1 uM,0.07368
same,FP signal (raw),[5]; Cmpd 2 uM,8
same,FP signal as fraction of no-compound (0 uM) control,[5]; Cmpd 2 uM,0.08421
same,FP signal (raw),[6]; 0.01 uM,243
same,"FP signal, fraction of control",[6]; 0.01 uM,0.9681
same,FP signal (raw),[6]; 0.02 uM,243
same,"FP signal, fraction of control",[6]; 0.02 uM,0.9681
same,FP signal (raw),[6]; 0.078 uM,240
same,"FP signal, fraction of control",[6]; 0.078 uM,0.9562
same,FP signal (raw),[6]; 0.313 uM,223
same,"FP signal, fraction of control",[6]; 0.313 uM,0.8884
same,FP signal (raw),[6]; 0.625 uM,206
same,"FP signal, fraction of control",[6]; 0.625 uM,0.8207
same,FP signal (raw),[6]; 2.5 uM,144
same,"FP signal, fraction of control",[6]; 2.5 uM,0.5737
same,FP signal (raw),[6]; 5 uM,102
same,"FP signal, fraction of control",[6]; 5 uM,0.4064
same,FP signal (raw),[6]; 10 uM,52
same,"FP signal, fraction of control",[6]; 10 uM,0.2072
same,EC50,[6]; fit against log conc uM,3.42 µM
